Results taken from patent publication US20260193271A1, “PAN-KRAS INHIBITOR COMPOUND” (ADLAI NORTYE BIOPHARMA CO., LTD., priority 2022, published 2026).

How the values were obtained:
[1] = tested on: AsPC-1 (G12D); test: In vitro cell proliferation inhibition test (CellTiter-Glo), AsPC-1; format: cell-based; details: Homo sapiens, ASPC1, AsPC-1 pancreas cell line, KRAS (p.G12D), 72 h co-incubation
Procedure, shortened: (§1)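 IC50 was derived by four-parameter fitting of normalized CellTiter-Glo signals. These were measured after 72 h co-incubation with compound at 10 concentrations, 3-fold serial, final maximum 10 μM. Plating was 1000-5000 cells/well, adjusted to growth rate, with overnight attachment at 37 °C, 5% CO2.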

[2] = tested on: SW480 (G12V); test: In vitro cell proliferation inhibition test (CellTiter-Glo), SW480; format: cell-based; details: Homo sapiens, SW480 colon cell line, KRAS (p.G12V), 72 h co-incubation
Procedure, shortened: as §1

SMILES | IC50 [1] [nM] | IC50 [2] [nM]
CCn1c(-c2cc(-c3ccc4c(c3)CN(C)C4)cnc2[C@H](C)OC)c2c3cc(ccc31)-c1csc(n1)C[C@H](NC(=O)[C@H]1C[C@@H]1C)C(=O)N1CCC[C@H](N1)C(=O)OCC(C)(C)C2 (atropisomer, axis not shown) [Compound 2, (1S,2S)-N-((6^3S,4S,Z)-1^1-ethyl-1^2-(2-((S)-1-methoxyethyl)-5-(2-methylisoindolin-5-yl)pyridin-3-yl)-10,10-dimethyl-5,7-dioxo-6^1,6^2,6^3,6^4,6^5,6^6-hexahydro-1^1H-8-oxa-2(4,2)-thiazola-1(5,3)-indola-6(1,3)-pyridazinacycloundecaphane-4-yl)-2-methylcyclopropane-1-carboxamide] | 21 | 670
CCn1c(-c2cc(-c3cncc(CN4CCS(=O)(=O)CC4)c3)cnc2[C@H](C)OC)c2c3cc(ccc31)-c1csc(n1)C[C@H](NC(=O)[C@H]1[C@H](C)[C@@H]1C)C(=O)N1CCC[C@H](N1)C(=O)OCC(C)(C)C2 (atropisomer, axis not shown) [Compound 37, (1r,2R,3S)-N-((6^3S,4S,Z)-12-(5′-((1,1-dioxidothiomorpholino)methyl)-6-((S)-1-methoxyethyl)-[3,3′-bipyridin]-5-yl)-1^1-ethyl-10,10-dimethyl-5,7-dioxo-6^1,6^2,6^3,6^4,6^5,6^6-hexahydro-1^1H-8-oxa-2(4,2)-thiazola-1(5,3)-indola-6(1,3)-pyridazinacycloundecaphane-4-yl)-2,3-dimethylcyclopropane-1-carboxamide] | 0.9 | 1.8
